PMC9456261 (International Journal of Molecular Sciences, 2022)
Where two headings read alike, the source gives them in different places.

Tests used:
Experiment in all cases: microbe, parasite or virus in culture
Assay type in all cases: cell-based
[1] = system: SARS-CoV-2 Delta (B.1.617.2)
[2] = system: SARS-CoV-2 Beta (B.1.351)
[3] = system: SARS-CoV-2 Omicron (B.1.1.529)
[4] = Severe acute respiratory syndrome coronavirus 2, Vero C1008, 72 h

`O=C(O)c1ccc(OCCCCn2c(=O)ccn(Cc3cccc4ccccc34)c2=O)cc1` [Compound 601, 4-[4-[2,6-Dioxo-3-(naphthyl-1-methyl)-3,6-dihydropyrimidin-1(^2H)-yl]butoxy]benzoic acid] gave an IC50 [1, 4] of 32.7 µM, an IC50 [2, 4] of 32.7 µM and an IC50 [3, 4] of 27.1 µM.

For `O=C(O)c1ccc(OCCCCn2c(=O)ccn(Cc3ccc4ccccc4c3)c2=O)cc1` [Compound 1005, 4-[4-[2,6-Dioxo-3-(naphthyl-2-methyl)-3,6-dihydropyrimidin-1(^2H)-yl]butoxy]benzoic acid], the IC50 [1, 4] was 27.8 µM, the IC50 [2, 4] was 15.5 µM and the IC50 [3, 4] was greater than 50 µM.

Work on `O=C(O)c1ccc(OCCCCCn2c(=O)ccn(CCCCCOc3ccc(F)cc3)c2=O)cc1` [Compound 870, 4-[5-[3-[5-(4-Fluorophenoxy)pentyl]-2,6-dioxo-3,6-dihydropyrimidin-1(^2H)-yl]pentyloxy]benzoic acid] yielded an IC50 [1, 4] of 14.6 µM, an IC50 [2, 4] of 34.1 µM and an IC50 [3, 4] of 24.4 µM.

For `O=C(O)c1ccc(OCCCCn2c(=O)ccn(CCCOc3ccc(Br)cc3)c2=O)cc1` [Compound 873, 4-[4-[3-[3-(4-Bromophenoxy)propyl]-2,6-dioxo-3,6-dihydropyrimidin-1(^2H)-yl]butoxy]benzoic acid], the IC50 [1, 4] was greater than 50 µM, the IC50 [2, 4] was 50 µM and the IC50 [3, 4] was 28.2 µM.

With `O=C(O)c1ccc(OCCCCCn2c(=O)ccn(Cc3c4ccccc4cc4ccccc34)c2=O)cc1` [Compound 876] the IC50 [1, 4] was 29.3 µM, the IC50 [2, 4] was 23.8 µM and the IC50 [3, 4] was 22.4 µM.

`Cc1cc(C)cc(OCCCCCn2ccc(=O)n(CCCCCOc3ccc(C(=O)O)cc3)c2=O)c1` [Compound 874, 4-[5-[3-[5-(3,5-Dimethylphenoxy)pentyl]-2,6-dioxo-3,6-dihydropyrimidin-1(^2H)-yl]pentyloxy]benzoic acid] gave an IC50 [1, 4] of 30.2 µM, an IC50 [2, 4] of 29.1 µM and an IC50 [3, 4] greater than 50 µM.

For `O=C(O)c1ccc(OCCCn2c(=O)ccn(CCCCCCCCCCCCOc3ccc(Br)cc3)c2=O)cc1` [Compound 1007, 4-[3-[3-[12-(4-Bromophenoxy)dodecyl]-2,6-dioxo-3,6-dihydropyrimidin-1(^2H)-yl]propoxy]benzoic acid], the IC50 [1, 4] was greater than 50 µM, the IC50 [2, 4] was greater than 50 µM and the IC50 [3, 4] was greater than 50 µM.

For `O=C(O)c1ccc(OCCCCn2c(=O)ccn(Cc3ccc(Br)c4ccccc34)c2=O)cc1` [Compound 1006, 4-[4-[3-(4-Bromonaphthyl-1-methyl)-2,6-dioxo-3,6-dihydropyrimidin-1(2H)-yl]butoxy]benzoic acid], the IC50 [1, 4] was 27.4 µM, the IC50 [2, 4] was greater than 50 µM and the IC50 [3, 4] was greater than 50 µM.

`O=C(O)c1ccc(OCCCCCn2c(=O)ccn(CCCCCOc3ccccc3Br)c2=O)cc1` [Compound 871, 4-[5-[3-[5-(2-Bromophenoxy)pentyl]-2,6-dioxo-3,6-dihydropyrimidin-1(^2H)-yl]pentyloxy]benzoic acid] was tested, and the IC50 [1, 4] was 26.6 µM, the IC50 [2, 4] was 27.3 µM and the IC50 [3, 4] was greater than 50 µM.

`O=c1ccn(Cc2c3ccccc3cc3ccccc23)c(=O)n1CCCCCCOc1ccc(Br)cc1` [Compound 611, 1-(Anthracen-9-ylmethyl)-3-[6-(4-bromophenoxy)hexyl]uracil] was tested, and the IC50 [1, 4] was 13.3 µM, the IC50 [2, 4] was greater than 50 µM and the IC50 [3, 4] was greater than 50 µM.

With “4-[5-[3-[5-(2-Bromophenoxy)pentyl]-2,6-dioxo-5-methyl-3,6-dihydropyrimidin-1(^2H)-yl]pentyloxy]benzoic acid [Compound 872]” the IC50 [1] was greater than 50 µM, the IC50 [2] was greater than 50 µM and the IC50 [3] was 7.92 µM.

Work on `O=C(O)c1ccc(Cn2c(=O)ccn(CCCCCOc3ccc(Br)cc3)c2=O)cc1` [Compound 875] yielded an IC50 [1, 4] of 30.7 µM, an IC50 [2, 4] of 33.1 µM and an IC50 [3, 4] of 22.6 µM.
